{"source": "paper PMC10850145", "about": "“Hormonal steroids induce multidrug resistance and stress response genes in Neisseria gonorrhoeae by binding to MtrR” (Nature Communications, 2024)", "key": {"N. gonorrhoeae": {"test_system": "N. gonorrhoeae", "design": "method as in PMID 816438", "details": "cited from earlier work"}, "FA19 mtrD::kan (KH14)": {"test_system": "FA19 mtrD::kan (KH14)", "test": "MIC of steroidal hormones on GC agar, FA19 mtrD::kan (KH14)", "format": "cell-based, Neisseria gonorrhoeae", "method": "To determine the minimal inhibitory concentrations (MICs) by the steroidal hormones and their effect on antimicrobial susceptibility, 5 x 10^5 CFU and 1:5 serial dilutions of gonococcal strains were spotted on GC agar plates containing different concentrations of antibiotics and/or hormones as indicated. Antimicrobial susceptibility was assessed after 24 h incubation.\nTable S1. Steroidal hormones are substrates of the MtrCDE efflux pump\nProgesterone Testosterone\n*Minimal inhibition concentration is defined by the lowest concentration at which visible growth is […]"}, "MtrR R176E": {"molecular_target": "T1, MtrR R176E (Neisseria gonorrhoeae, UniProt P39897, R176E)", "T1 construct": "Hexa-histidine tag with TEV protease cleavage site (N, cleaved yes); made in house; host or cells: E. coli Rosetta Gami B(DE3) pLysS", "T1 sequence (P39897 whole entry R176E)": "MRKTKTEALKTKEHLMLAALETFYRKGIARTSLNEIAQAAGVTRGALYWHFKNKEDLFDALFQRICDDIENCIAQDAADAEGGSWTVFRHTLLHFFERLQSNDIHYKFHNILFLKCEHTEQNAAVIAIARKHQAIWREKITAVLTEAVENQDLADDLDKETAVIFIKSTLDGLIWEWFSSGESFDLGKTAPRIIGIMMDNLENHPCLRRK", "test": "biochemical", "format": "binding"}, "rpoH-lacZ expression": {"test_system": "rpoH-lacZ expression", "format": "cell-based, Neisseria gonorrhoeae", "details": "for Miller units, single well: individual replicate; for Plate-6 (Testosterone) Miller units, Mean / Plate-6 (Testosterone) Miller units: right (rpoH) half of sheet"}, "[1]": {"details": "rpoH-lacZ, ΔmtrR + mtrR D171A in trans, 6.25 µM hormone, single replicate"}, "[2]": {"details": "rpoH-lacZ, ΔmtrR + mtrR D171A in trans, 12.5 µM hormone, single replicate"}}, "note": "“And” between values parts separate entries of the source, which are not always exact repeats. Equal entries are not always repeated. Where two headings read alike, the source gives them in different places.", "data": [{"smiles": "C[C@]12CC[C@H]3[C@@H](CCC4=CC(=O)CC[C@@]43C)[C@@H]1CC[C@@H]2O", "note": "[Testosterone, testosterone]", "values": [{"measurement": "growth inhibition of N. gonorrhoeae", "setting": "N. gonorrhoeae", "result": "arrest N. gonorrhoeae growth"}, {"measurement": "MIC", "setting": "FA19 mtrD::kan (KH14); Neisseria gonorrhoeae", "result": "40 µg/mL and 139 µM"}, {"measurement": "effect of mtrD deletion on MIC", "setting": "FA19 mtrD::kan (KH14); vs FA19", "result": "lowered"}, {"measurement": "Kd", "setting": "MtrR R176E", "result": "3.73 ± 0.4", "unit": "µM"}, {"measurement": "Miller units, single well", "setting": "rpoH-lacZ expression; 6.25 µM hormone, plate columns 1-6 (WT)", "result": "114 Miller units and 127 Miller units and 153 Miller units"}, {"measurement": "Miller units, Mean", "setting": "rpoH-lacZ expression; 6.25 µM hormone, plate columns 1-6 (WT), mean of 4 wells", "result": 125, "unit": "Miller units"}, {"measurement": "Miller units, Mean", "setting": "rpoH-lacZ expression; 6.25 µM hormone, plate columns 1-6 (WT), mean of plate rows 5-8 (rpoH)", "result": 125, "unit": "Miller units"}, {"measurement": "Miller units", "setting": "rpoH-lacZ expression; 6.25 µM hormone, plate columns 1-6 (WT), plate rows 5-8 (rpoH), single well", "result": "114 Miller units and 127 Miller units and 153 Miller units and 108 Miller units"}, {"measurement": "Miller units", "setting": "rpoH-lacZ expression; 6.25 µM hormone, plate columns 7-12 (second strain not given), plate rows 5-8 (rpoH), single well", "result": "161 Miller units and 167 Miller units and 191 Miller units and 162 Miller units"}, {"measurement": "Miller units, Mean", "setting": "rpoH-lacZ expression; 6.25 µM hormone, plate columns 7-12 (second strain), mean of plate rows 5-8 (rpoH)", "result": 170, "unit": "Miller units"}, {"measurement": "Miller units, single well", "setting": "rpoH-lacZ expression; 6.25 µM hormone, plate columns 7-12 (second strain, not WT)", "result": "161 Miller units and 167 Miller units and 191 Miller units"}, {"measurement": "Miller units, Mean", "setting": "rpoH-lacZ expression; 6.25 µM hormone, plate columns 7-12 (second strain, not WT), mean of 4 wells", "result": 170, "unit": "Miller units"}, {"measurement": "Plate-6 (Testosterone) Miller units, Mean", "setting": "rpoH-lacZ expression; 6.25 µM, plate column 3, mean of plate rows 5-8", "result": 43, "unit": "Miller units"}, {"measurement": "Plate-6 (Testosterone) Miller units", "setting": "rpoH-lacZ expression; 6.25 µM, plate column 3, plate rows 5-8, single wells", "result": "39 Miller units and 46 Miller units and 47 Miller units"}, {"measurement": "Plate-6 (Testosterone) Miller units, Mean", "setting": "rpoH-lacZ expression; 6.25 µM, plate column 9, mean of plate rows 5-8", "result": 64, "unit": "Miller units"}, {"measurement": "Plate-6 (Testosterone) Miller units", "setting": "rpoH-lacZ expression; 6.25 µM, single wells", "result": "55 Miller units and 57 Miller units and 65 Miller units and 80 Miller units"}, {"measurement": "Miller units, single well", "setting": "rpoH-lacZ expression; 12.5 µM hormone, plate columns 1-6 (WT)", "result": "120 Miller units and 124 Miller units and 149 Miller units"}, {"measurement": "Miller units, Mean", "setting": "rpoH-lacZ expression; 12.5 µM hormone, plate columns 1-6 (WT), mean of 4 wells", "result": 130, "unit": "Miller units"}, {"measurement": "Miller units, Mean", "setting": "rpoH-lacZ expression; 12.5 µM hormone, plate columns 1-6 (WT), mean of plate rows 5-8 (rpoH)", "result": 130, "unit": "Miller units"}, {"measurement": "Miller units", "setting": "rpoH-lacZ expression; 12.5 µM hormone, plate columns 1-6 (WT), plate rows 5-8 (rpoH), single well", "result": "120 Miller units and 124 Miller units and 149 Miller units and 125 Miller units"}, {"measurement": "Miller units", "setting": "rpoH-lacZ expression; 12.5 µM hormone, plate columns 7-12 (second strain not given), plate rows 5-8 (rpoH), single well", "result": "161 Miller units and 177 Miller units and 186 Miller units and 176 Miller units"}, {"measurement": "Miller units, Mean", "setting": "rpoH-lacZ expression; 12.5 µM hormone, plate columns 7-12 (second strain), mean of plate rows 5-8 (rpoH)", "result": 175, "unit": "Miller units"}, {"measurement": "Miller units, single well", "setting": "rpoH-lacZ expression; 12.5 µM hormone, plate columns 7-12 (second strain, not WT)", "result": "161 Miller units and 177 Miller units and 186 Miller units"}, {"measurement": "Miller units, Mean", "setting": "rpoH-lacZ expression; 12.5 µM hormone, plate columns 7-12 (second strain, not WT), mean of 4 wells", "result": 175, "unit": "Miller units"}, {"measurement": "Plate-6 (Testosterone) Miller units, Mean", "setting": "rpoH-lacZ expression; 12.5 µM, plate column 4, mean of plate rows 5-8", "result": 52, "unit": "Miller units"}, {"measurement": "Plate-6 (Testosterone) Miller units", "setting": "rpoH-lacZ expression; 12.5 µM, plate column 4, plate rows 5-8, single wells", "result": "51 Miller units and 50 Miller units and 56 Miller units and 52 Miller units"}, {"measurement": "Plate-6 (Testosterone) Miller units, Mean", "setting": "rpoH-lacZ expression; 12.5 µM, plate column 10, mean of plate rows 5-8", "result": 62, "unit": "Miller units"}, {"measurement": "Plate-6 (Testosterone) Miller units", "setting": "rpoH-lacZ expression; 12.5 µM, plate column 10, plate rows 5-8, single wells", "result": "58 Miller units and 54 Miller units and 63 Miller units and 74 Miller units"}, {"measurement": "Miller units, single well", "setting": "rpoH-lacZ expression; 25 µM hormone, plate columns 1-6 (WT)", "result": "127 Miller units and 137 Miller units"}, {"measurement": "Miller units, Mean", "setting": "rpoH-lacZ expression; 25 µM hormone, plate columns 1-6 (WT), mean of 4 wells", "result": 133, "unit": "Miller units"}, {"measurement": "Miller units, Mean", "setting": "rpoH-lacZ expression; 25 µM hormone, plate columns 1-6 (WT), mean of plate rows 5-8 (rpoH)", "result": 133, "unit": "Miller units"}, {"measurement": "Miller units", "setting": "rpoH-lacZ expression; 25 µM hormone, plate columns 1-6 (WT), plate rows 5-8 (rpoH), single well", "result": "127 Miller units and 137 Miller units and 133 Miller units"}, {"measurement": "Miller units", "setting": "rpoH-lacZ expression; 25 µM hormone, plate columns 7-12 (second strain not given), plate rows 5-8 (rpoH), single well", "result": "168 Miller units and 179 Miller units and 147 Miller units and 185 Miller units"}, {"measurement": "Miller units, Mean", "setting": "rpoH-lacZ expression; 25 µM hormone, plate columns 7-12 (second strain), mean of plate rows 5-8 (rpoH)", "result": 170, "unit": "Miller units"}, {"measurement": "Miller units, single well", "setting": "rpoH-lacZ expression; 25 µM hormone, plate columns 7-12 (second strain, not WT)", "result": "168 Miller units and 179 Miller units and 147 Miller units"}, {"measurement": "Miller units, Mean", "setting": "rpoH-lacZ expression; 25 µM hormone, plate columns 7-12 (second strain, not WT), mean of 4 wells", "result": 170, "unit": "Miller units"}, {"measurement": "Plate-6 (Testosterone) Miller units, Mean", "setting": "rpoH-lacZ expression; 25 µM, plate column 5, mean of plate rows 5-8", "result": 63, "unit": "Miller units"}, {"measurement": "Plate-6 (Testosterone) Miller units", "setting": "rpoH-lacZ expression; 25 µM, plate column 5, plate rows 5-8, single wells", "result": "68 Miller units and 55 Miller units and 57 Miller units and 70 Miller units"}, {"measurement": "Plate-6 (Testosterone) Miller units, Mean", "setting": "rpoH-lacZ expression; 25 µM, plate column 11, mean of plate rows 5-8", "result": 65, "unit": "Miller units"}, {"measurement": "Plate-6 (Testosterone) Miller units", "setting": "rpoH-lacZ expression; 25 µM, plate column 11, plate rows 5-8, single wells", "result": "64 Miller units and 60 Miller units and 68 Miller units and 67 Miller units"}, {"measurement": "Miller units, single well", "setting": "rpoH-lacZ expression; 50 µM hormone, plate columns 1-6 (WT)", "result": "140 Miller units and 146 Miller units and 175 Miller units"}, {"measurement": "Miller units, Mean", "setting": "rpoH-lacZ expression; 50 µM hormone, plate columns 1-6 (WT), mean of 4 wells", "result": 152, "unit": "Miller units"}, {"measurement": "Miller units, Mean", "setting": "rpoH-lacZ expression; 50 µM hormone, plate columns 1-6 (WT), mean of plate rows 5-8 (rpoH)", "result": 152, "unit": "Miller units"}, {"measurement": "Miller units", "setting": "rpoH-lacZ expression; 50 µM hormone, plate columns 1-6 (WT), plate rows 5-8 (rpoH), single well", "result": "140 Miller units and 146 Miller units and 175 Miller units"}, {"measurement": "Miller units", "setting": "rpoH-lacZ expression; 50 µM hormone, plate columns 7-12 (second strain not given), plate rows 5-8 (rpoH), single well", "result": "166 Miller units and 158 Miller units and 156 Miller units"}, {"measurement": "Miller units, Mean", "setting": "rpoH-lacZ expression; 50 µM hormone, plate columns 7-12 (second strain), mean of plate rows 5-8 (rpoH)", "result": 162, "unit": "Miller units"}, {"measurement": "Miller units, single well", "setting": "rpoH-lacZ expression; 50 µM hormone, plate columns 7-12 (second strain, not WT)", "result": "166 Miller units and 158 Miller units and 156 Miller units"}, {"measurement": "Miller units, Mean", "setting": "rpoH-lacZ expression; 50 µM hormone, plate columns 7-12 (second strain, not WT), mean of 4 wells", "result": 162, "unit": "Miller units"}, {"measurement": "Plate-6 (Testosterone) Miller units, Mean", "setting": "rpoH-lacZ expression; 50 µM, plate column 6, mean of plate rows 5-8", "result": 68, "unit": "Miller units"}, {"measurement": "Plate-6 (Testosterone) Miller units", "setting": "rpoH-lacZ expression; 50 µM, plate column 6, plate rows 5-8, single wells", "result": "76 Miller units and 71 Miller units and 62 Miller units and 63 Miller units"}, {"measurement": "Plate-6 (Testosterone) Miller units, Mean", "setting": "rpoH-lacZ expression; 50 µM, plate column 12, mean of plate rows 5-8", "result": 57, "unit": "Miller units"}, {"measurement": "Plate-6 (Testosterone) Miller units", "setting": "rpoH-lacZ expression; 50 µM, single wells", "result": "65 Miller units and 49 Miller units and 56 Miller units and 58 Miller units"}, {"measurement": "induction of rpoH expression", "setting": "rpoH-lacZ expression; complemented (MtrR+) strains, increasing hormone", "result": "could be induced"}, {"measurement": "induction of rpoH expression", "setting": "rpoH-lacZ expression; loss of MtrR or MtrR-D171A strain", "result": "abrogated"}, {"measurement": "Miller units", "setting": "rpoH-lacZ expression; [1]", "result": "55 Miller units and 65 Miller units"}, {"measurement": "β-galactosidase activity (Miller units)", "setting": "rpoH-lacZ expression; [1]", "result": "55 Miller units and 57 Miller units and 80 Miller units"}, {"measurement": "Miller units", "setting": "rpoH-lacZ expression; [2]", "result": 63, "unit": "Miller units"}, {"measurement": "β-galactosidase activity (Miller units)", "setting": "rpoH-lacZ expression; [2]", "result": "58 Miller units and 54 Miller units and 74 Miller units"}]}]}
